Measurements as given in patent US20100280975A1, “SYSTEMS FOR CLINICAL TRIALS” (WisTa Laboratories Ltd., priority 2007, published 2010).

Legend:
[1] = test system: mild and moderate dementia of the Alzheimer type; experiment: rember™ study: ADAS-cog change over 50 weeks, linear imputation for fit-survivor bias; type: in vivo, human; details: for Estimated change from baseline, Least Exposed Dose comparator method / Estimated effect size, Least Exposed Dose comparator method: 50 weeks; for Estimated effect size, Least Exposed Dose comparator method: vs placebo-low arm; for Effect size inferred from least-squares analysis at 50 weeks / Effect size inferred from mixed effects analysis at 50 weeks: vs inferred placebo
Text: A method has been developed by the inventors which has not been described previously which permits unbiased correction for the fit-survivor phenomenon. […] If a patient who was CDR-moderate at baseline discontinued medication at some time after 24 weeks, a straight line is fitted to the graph of available ADAS-cog change scores against visit-date for the available data for each subject. The line was not forced to pass through zero, to allow for placebo effect, and because the first visit is subject to random fluctuations. The use of a straight-line fit per-subject is supported by the large studies of Stern et al., (1994), Doraiswamy et al., (2001) and Winblad, B., Wimo, A., Engedal, K., Soininen, H., Verhey, F., Waldemar, G., Wetterholm, A. L., Haglund, A., Zhang, R., Schindler, R. (2006) 3-year study of donepezil therapy in Alzheimer's disease: effects of early and continuous therapy. […] The same approach can be applied to other outcome measures for which there were assessments scheduled after 24 weeks.
Subjects originally randomized to placebo were switched to the low (100 mg) dose bd after 24 weeks. This is referred to as the “placebo-low” treatment arm.
In this chart, the labelling conventions of “placlow” refers to subjects randomised to placebo and changed to low (100 mg) bd after 24 weeks, “low” refers to low (100 mg) dose tid, “30 mg” refers to 30 mg dose tid and “60 mg” refers to 60 mg dose tid.

[2] = test system: mild and moderate dementia of the Alzheimer type; experiment: Mild-brought-forward confirmatory analysis of ADAS-cog over 25 weeks; type: in vivo, human; details: for Mild-brought-forward CDR-mild effect size over 25 weeks / Mild-brought-forward CDR-moderate effect size over 25 weeks / Mild-brought-forward confirmatory analysis, overall effect size over 25 weeks: vs placebo/placebo-low; for Mild-brought-forward confirmatory analysis, overall change from baseline over 25 weeks: whole population, mixed-effects model
[3] = test system: mild and moderate dementia of the Alzheimer type; experiment: rember™ study: MMSE over 50 weeks; type: in vivo, human
Text: Another standardised test is the Mini-Mental State Examination [MMSE] which was proposed as a simple and quickly administered method for grading cognitive function (Folstein M F, Folstein S E & McHugh P R. ‘Mini-mental state’. A practical method for grading the cognitive state of patients for the clinician. Journal of Psychiatric Research 1975 12 189-198.). The MMSE is the most widely used cognitive screening instrument for the detection of cognitive dysfunction due to dementia in geriatric and psychiatric patients (Tombaugh T N & McIntyre N J. The mini-mental state examination: a comprehensive review. Journal of the American Geriatric Society 1992 40 922-935). The MMSE evaluates orientation, memory, attention and language functions.
The mean decline observed over the 50-week study in placebo-treated subjects was 7.8 ADAS-cog units (FIG. 19). […] On the ADAS-cog scale, about 60% of subjects improved or stayed the same at 50 weeks. On the MMSE scale, 62% improved or stayed the same at 50 weeks. The odds of a patient not declining on either scale were about 3.4 times better at the 60 mg dose than on placebo-low. The corresponding effect sizes were −6.8 ADAS-cog units and 3.2 MMSE units over the 50-week trial.

CDR-moderate subjects = experiment: rember™ study: NPI (Neuropsychiatric Inventory) over 50 weeks; type: in vivo, human; details: vs placebo-low arm
[4] = Adverse effects in the rember™ trial; type: in vivo, human
Description: Thus subjects in the Least Exposed Dose arm (ie subjects switched to the low (100 mg) dose after 6 months) who continued to decline withdrew from the study largely after 24 weeks. […] However, biased withdrawal was not a factor in CDR-mild subjects in the same low (100 mg) comparator treatment arm. Therefore the primary driver of non-random withdrawal in the rember™ trial was the experience of continuing rapid decline which was most apparent in the CDR-moderate group.

[5] = test system: mild and moderate dementia of the Alzheimer type; experiment: rember™ Phase 2 study: ADAS-cog change over 24 weeks; details: for Estimate, ADAS-cog change vs placebo, LM (ANCOVA) analysis: 24-week time-point

CN(C)c1ccc2nc3ccc(=[N+](C)C)cc-3sc2c1 [rember™, methylthioninium chloride]
initial symptomatic improvement at 15 weeks, ADAS-cog ([1]; 60 mg dose): 1.6 ADAS-cog units | subjects improved or stayed the same on the ADAS-cog scale at 50 weeks ([1]; 60 mg tid): about 60% | Estimated change from baseline, Least Exposed Dose comparator method ([1]; 30 mg tid): 3.95 ADAS-cog units | Estimated change from baseline, Least Exposed Dose comparator method ([1]; low (100 mg) tid): 4.00 ADAS-cog units | Estimated effect size, Least Exposed Dose comparator method ([1]; 30 mg tid): −2.80 ADAS-cog units | Estimated effect size, Least Exposed Dose comparator method ([1]; 60 mg tid): −5.71 ADAS-cog units | Estimated effect size, Least Exposed Dose comparator method ([1]; low (100 mg) tid): −2.76 ADAS-cog units | Effect size inferred from least-squares analysis at 50 weeks ([1]; 30 mg tid): −4.37 ADAS-cog units | Effect size inferred from mixed effects analysis at 50 weeks ([1]; 30 mg tid): −3.87 ADAS-cog units | Effect size inferred from least-squares analysis at 50 weeks ([1]; 60 mg tid): −6.50 ADAS-cog units | Effect size inferred from least-squares analysis at 50 weeks ([1]; low (100 mg) tid): −3.59 ADAS-cog units | Effect size inferred from mixed effects analysis at 50 weeks ([1]; low (100 mg) tid): −4.04 ADAS-cog units | Mild-brought-forward CDR-mild change over 25 weeks ([2]; 30 mg): 3.07 ADAS-cog units | Mild-brought-forward CDR-mild change over 25 weeks ([2]; 60 mg): 1.07 ADAS-cog units | Mild-brought-forward CDR-mild change over 25 weeks ([2]; low (100 mg)): 3.60 ADAS-cog units | Mild-brought-forward CDR-mild effect size over 25 weeks ([2]; 30 mg): −1.19 ADAS-cog units | Mild-brought-forward CDR-mild effect size over 25 weeks ([2]; 60 mg): −3.19 ADAS-cog units | Mild-brought-forward CDR-mild effect size over 25 weeks ([2]; low (100 mg)): −0.66 ADAS-cog units | Mild-brought-forward CDR-moderate change over 25 weeks ([2]; 60 mg): 0.30 ADAS-cog units | Mild-brought-forward CDR-moderate change over 25 weeks ([2]; low (100 mg)): 4.82 ADAS-cog units | Mild-brought-forward CDR-moderate effect size over 25 weeks ([2]; 30 mg): 4.33 ADAS-cog units | Mild-brought-forward CDR-moderate effect size over 25 weeks ([2]; 60 mg): −5.67 ADAS-cog units | Mild-brought-forward CDR-moderate effect size over 25 weeks ([2]; low (100 mg)): −0.54 ADAS-cog units | Mild-brought-forward confirmatory analysis, overall effect size over 25 weeks ([2]; 30 mg): −2.39 ADAS-cog units | Mild-brought-forward confirmatory analysis, overall effect size over 25 weeks ([2]; 60 mg): −3.85 ADAS-cog units | Mild-brought-forward confirmatory analysis, overall effect size over 25 weeks ([2]; low (100 mg)): −0.84 ADAS-cog units | Mild-brought-forward confirmatory analysis, overall change from baseline over 25 weeks ([2]; 30 mg): 2.26 ADAS-cog units | Mild-brought-forward confirmatory analysis, overall change from baseline over 25 weeks ([2]; 60 mg): 0.78 ADAS-cog units | Mild-brought-forward confirmatory analysis, overall change from baseline over 25 weeks ([2]; low (100 mg)): 3.81 ADAS-cog units | initial symptomatic improvement at 15 weeks, MMSE ([3]; 60 mg dose): 0.8 MMSE units | effect size on MMSE over the 50-week trial ([3]; 60 mg tid): 3.2 MMSE units | subjects improved or stayed the same on the MMSE scale at 50 weeks ([3]; 60 mg tid): 62% | NPI carer-distress scale, best effect size over 50 weeks (CDR-moderate subjects): −4.6 units | NPI patient-disturbance scale, best effect size over 50 weeks (CDR-moderate subjects): −9.2 units | adverse effects ([4]; low (100 mg) bd, second 6-months of the study): adverse effects, most notably diarrhea | haematological side effects ([4]; tid vs. bd dosing regimes): showed a clear dose-response profile | effect size in the entire ITT population of mild and moderate AD ([5]; 60 mg tid, OC and LOCF analyses, 24 weeks, pooled CDR-mild and CDR-moderate): −1.0 to −1.2 ADAS-cog units | Estimate, ADAS-cog change vs placebo, LM (ANCOVA) analysis ([5]; ITT/LOCF, with interaction term, CDR-mild, 60 mg tid): −0.20 ADAS-cog units | Estimate, ADAS-cog change vs placebo, LM (ANCOVA) analysis ([5]; ITT/LOCF, with interaction term, CDR-mild, low (100 mg) tid): −0.79 ADAS-cog units | Estimate, ADAS-cog change vs placebo, LM (ANCOVA) analysis ([5]; ITT/LOCF, with interaction term, CDR-moderate, 30 mg tid): −3.00 ADAS-cog units | Estimate, ADAS-cog change vs placebo, LM (ANCOVA) analysis ([5]; ITT/LOCF, with interaction term, CDR-moderate, low (100 mg) tid): −0.40 ADAS-cog units | Estimate, change in ADAS-cog score vs intercept, least squares ([5]; ITT/LOCF, with interaction term, week 24, CDR-mild, 30 mg tid): 0.46 ADAS-cog units
